Reference: patent US20060025394A1, “Estradiol-related compounds and methods of use as anti-tumor agents” (priority 2003, published 2006)
“Also recorded” adds a separate entry of the source.

Legend:
PC3 = experiment: MTS cell viability assay in PC3; assay type: cell-based
Protocol: (§1) DU145, LNCaP, PC3, and MCF-7 cells were obtained from the American Type Culture Collection (Manassas, Va.). DU145, PC3, and MCF-7 cells were maintained in Dulbecco's modified Eagle's medium/F-12 supplemented with 5% heat inactivated Fetal Calf Serum and Penicillin/Streptomycin (Invitrogen Life Technologies, Carlsbad, Calif.). LNCaP cells were maintained in RPMI 1640 medium supplemented in the same fashion. Cells were cultured in 75 cm^2 flasks (Falcon, BD Biosciences, Bedford, Mass.) at 37° C. and 5% CO2. For the MTS assay (Example 3), five thousand cells were plated in each well of a 24 well plate (Falcon), were allowed to attach for a 48-hour period in the media described, and changed to a defined medium, (DMEM/F-12 or RPMI1640) supplemented with insulin (BD Biosciences). A 1000× solution of the compound of interest solubilized in DMSO (Sigma, Saint Louis, Mo.) was diluted in the defined media just prior to starting each experiment, and media was refreshed every 48 to 72 hours throughout the experiments.
(§2) Cell viability assays were carried out with five logs of concentration between 0.1 nM and 1 μM for APVE2, including controls in three prostate cancer cell lines (DU145, LNCaP, and PC3, and in a breast cancer cell line (MCF-7). Upon completing five days of treatment, the medium in each well was exchanged for 400 μL of an MTS solution (3-(4,5-dimethylthiazol-2-yl)-5-(3-carboxymethoxyphenyl)-2-(4-sulfophenyl)-2H-tetrazolium, inner salt; O'Toole SA, 2003, Cancer Detect Prev., 2003;27(1):47-54) spiked into media as per the manufacture's instructions (Promega, Madison, Wis.) and incubated for 2 hours at 37° C. before reading the absorbance on the μQuant UV/VIS plate reader, in conjunction with KCjunior Software (Bio-Tek Instruments, Winooski, Vt.) set at 490 nm. All experiments were carried out in quadruplicate, control wells were treated with the carrier DMSO. E2, which is estradiol-17β (Steraloids®, Newport, R.I.) and resveratrol (Sigma) were used as controls. […] EC50 values were calculated with GraphPad Prism software (GraphPad Software Inc., San Diego, Calif.).

MCF-7 = experiment: MTS cell viability assay in MCF-7; assay type: cell-based; settings: MCF-7, data not shown
Protocol: DU145, LNCaP, PC3, and MCF-7 cells were obtained from the American Type Culture Collection (Manassas, Va.). DU145, PC3, and MCF-7 cells were maintained in Dulbecco's modified Eagle's medium/F-12 supplemented with 5% heat inactivated Fetal Calf Serum and Penicillin/Streptomycin (Invitrogen Life Technologies, Carlsbad, Calif.). LNCaP cells were maintained in RPMI 1640 medium supplemented in the same fashion. Cells were cultured in 75 cm^2 flasks (Falcon, BD Biosciences, Bedford, Mass.) at 37° C. and 5% CO2. […]
as §2, with “nm.” for “nm. All experiments were carried out in quadruplicate, control wells were treated with the carrier DMSO. E2, which is estradiol-17β (Steraloids®, Newport, R.I.) and resveratrol (Sigma) were used as controls.”

[1] = system: DU145, PC3, and LNCaP cell lines; experiment: MTS assay, values averaged or stated over the CaP cell lines; assay type: cell-based; settings: apoptotic mechanism
Protocol: as §1
. Upon completing five days of treatment, the medium in each well was exchanged for 400 μL of an MTS solution (3-(4,5-dimethylthiazol-2-yl)-5-(3-carboxymethoxyphenyl)-2-(4-sulfophenyl)-2H-tetrazolium, inner salt; O'Toole SA, 2003, Cancer Detect Prev., 2003;27(1):47-54) spiked into media as per the manufacture's instructions (Promega, Madison, Wis.) and incubated for 2 hours at 37° C. before reading the absorbance on the μQuant UV/VIS plate reader, in conjunction with KCjunior Software (Bio-Tek Instruments, Winooski, Vt.) set at 490 nm. All experiments were carried out in quadruplicate, control wells were treated with the carrier DMSO. E2, which is estradiol-17β (Steraloids®, Newport, R.I.) and resveratrol (Sigma) were used as controls. […]

ER-α = molecular target: T1, ER-α (Homo sapiens, UniProt P03372); experiment: Estrogen receptor relative binding affinity assay, fluorescence polarization, ER-α
T1 construct: purchased Pan Vera, Madison, Wis
T1 sequence (P03372 1-595): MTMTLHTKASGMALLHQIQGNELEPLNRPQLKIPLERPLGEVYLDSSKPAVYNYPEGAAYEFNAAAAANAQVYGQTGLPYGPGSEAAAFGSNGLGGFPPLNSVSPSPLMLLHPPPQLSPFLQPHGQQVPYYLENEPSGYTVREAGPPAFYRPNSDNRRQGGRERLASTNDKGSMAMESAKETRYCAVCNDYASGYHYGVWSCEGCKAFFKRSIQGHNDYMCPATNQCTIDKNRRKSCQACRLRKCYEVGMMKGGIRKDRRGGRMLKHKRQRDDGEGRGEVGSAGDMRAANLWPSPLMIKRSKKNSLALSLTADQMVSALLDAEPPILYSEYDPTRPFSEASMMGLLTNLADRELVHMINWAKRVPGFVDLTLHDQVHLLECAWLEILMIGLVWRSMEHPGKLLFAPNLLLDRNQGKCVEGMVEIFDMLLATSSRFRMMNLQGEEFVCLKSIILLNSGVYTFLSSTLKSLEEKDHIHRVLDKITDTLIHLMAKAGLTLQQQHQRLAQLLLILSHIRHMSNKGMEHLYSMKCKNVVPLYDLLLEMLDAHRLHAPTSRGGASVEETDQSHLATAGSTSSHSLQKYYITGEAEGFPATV
Protocol: All assays were carried out as per the manufacture's instructions with the following modifications.

DU145 cells [2] = experiment: Annexin-V-FITC/PI apoptosis assay; assay type: cell-based; settings: 16 nM, 4th and 5th days
Protocol: Apoptosis was assessed with the annexin-V-FITC apoptosis detection kit (Oncogene Research Products, Boston, Mass.) as per the manufacturer's instructions with E2 and camptothecin (Calbiochem, San Diego, Calif.) as negative and positive controls respectively. Briefly, cells were lifted at the appropriate time points as described above and pelleted. Cells were then resuspended in ice cold binding buffer, and doubly stained with Annexin-V-fluorescein isothiocyanate and propidium iodide (PI) and analyzed within two hours on the FACScan™ flow cytometer (Becton Dickinson) and the Cell Cycle Multi-Cycle system (Phoenix Flow System).

DU-145 = experiment: Cytotoxicity testing (Example 7), MTS, DU-145; assay type: cell-based; settings: Table 3; five days, 1 mM of each compound, defined media, MTS
Protocol: Cytotoxicity Studies were done in DU-145 and MCF-7 Cells. […] We set out to test the efficacy of these compounds based on known affinities for ER-α previously reported. Cells were treated for five days with 1 mM of each compound in a defined media. Cell number was estimated by the MTS method. Similar studies were carried out in the MCF-7 cell line known to express both ER-α and -β, and display proliferative properties in the presence of classic estrogens.

DU145 cells [3] = experiment: ER competition study, MTS assay with E2 as the competitor; settings: DU145, co- or 1 hour pre-treatment with 1 μM E2

## C[C@]12CC[C@@H]3c4ccc(O)cc4CC[C@H]3[C@@H]1CC[C@@]2(O)/C=C\c1ccc(N)cc1 [APVE2, 17α-20Z-21-[(4-amino)phenyl]-19-norpregna-1,3,5(10),20-tetraene-3,17β-diol]
PC3; Homo sapiens, PC-3, 120 h, PC3, five day treatment, read-out: EC50 (cell death, MTS)
  EC50: 2.7 nM
PC3; PC3, 1 nM
  increase in cell proliferation over non-treated controls: 20%
PC3; PC3, 5 days of treatment at 1 μM
  decrease in cell number: 81±0.8%
MCF-7
  cell death: did induce cell death
  proliferation / growth response: no growth response; also recorded: did not cause an increase in proliferation
[1]
  level of cell death: > 90%
ER-α; fluorescence polarization, 25° C., 2 hours
  EC50: 365 nM
ER-α; ratio of EC50 values as compared to E2
  ER-α % RBA: 0.87%
DU145 cells [2]
  cells staining heavily with both dyes (late stage apoptosis): approximately 76%
DU-145
  DU145 % Cell#: 10%
DU145 cells [3]
  reversal of cytotoxicity of 16 nM APVE2 by E2: not effected; also recorded: not reversed
